System: Aedes aegypti mosquitoes
Format: in vivo
Conditions: for Synergism of the insecticide by Cha Plu (SR or words): Cha Plu at 4 μg/female; for LD50: Table 1, topical 0.2 μL, mortality at 24 hr, Cha Plu 4 μg/female where combined; for Synergism of NP by Cha Plu constituent: Table 2, 2 ug/female
Excerpt: Aedes aegypti mosquitoes of the insecticide susceptible Orlando strain and the pyrethroid-resistant Puerto Rico strain were reared using standard protocols and provided by the United States Department of Agriculture—Center of Medical, Agricultural, and Veterinary Entomology (Gainesville, FL). Mosquitoes were aspirated from colony cages raised from pupae and anesthetized on ice. […] Ten mosquitoes were used per concentration and at least three different biological cohorts were used in the analysis. Knockdown (defined as inability to fly or maintain posture) was recorded at 1 hr or other time points post application (depending on the experiment), whereas mortality (defined as no movement—ataxia) was recorded at 24 hr. […] SAS 9.4 was used to calculate the LD50 values using a PROC PROBIT model with Abbott's correction to account for any control mortality.

Compound | Synergism of the insecticide by Cha Plu (SR or words) | LD50 [ng/mg] | Synergism of NP (PBO applied at 2 μg/female) [fold] | Synergism of NP by Cha Plu constituent
CCOCn1c(-c2ccc(Cl)cc2)c(C#N)c(Br)c1C(F)(F)F [Chlorfenapyr] | antagonism | 9.9 | – | –
CCCCOCCOCCOCc1cc2c(cc1CCC)OCO2 [PBO] | – | – | 3.8 | –
O=c1cc(-c2ccc(O)cc2)oc2c([C@@H]3O[C@H](CO)[C@@H](O)[C@H](O)[C@H]3O)c(O)cc(O)c12 [Vitexin] | – | – | – | inactive
C[C@@H]1O[C@@H](OC[C@H]2O[C@@H](Oc3c(-c4ccc(O)c(O)c4)oc4cc(O)cc(O)c4c3=O)[C@H](O)[C@@H](O)[C@@H]2O)[C@H](O)[C@H](O)[C@H]1O [rutin] | – | – | – | more than 3 fold
N#Cc1nn(-c2c(Cl)cc(C(F)(F)F)cc2Cl)c(N)c1[S+]([O-])C(F)(F)F (stereo not drawn) [Fipronil] | 1.02 | 0.1 | – | –
CNC(=N[N+](=O)[O-])NCc1cnc(Cl)s1 [Clothianidin, 1-(2-Chloro-1,3-thiazol-5-ylmethyl)-3-methyl-2-nitroguanidine] | strong synergist | 4.5 | – | –

— US12501902B2, “Compositions and methods relating to insecticides” (priority 2019, dated 2025)
